Assay: Capillary wicking time of laminated membrane strip (hydrophilicity)
Type: physicochemical
Source text: The terms "hydrophilic" and "wettable" are frequently used herein and are used interchangeably as antonyms for "hydrophobic". A number of procedures can be used to measure hydrophilicity. Since the membranes of the preferred embodiment resemble thin layer chromatograhic strips, hydrophilicity is here measured as the rate at which the solvent front traverses the membrane strips. Darcy's law provides a rate by relating the distance the front travels to the time t. For a fixed distance, L, the relevant measurement is the time taken for the front to reach L. A relative measure of hydrophilicity is given by comparing the time or "wicking" rate of treated laminated membranes against the time or wicking rate of untreated laminated membranes. Although relative hydrophilicity is sufficient, for purposes of this invention a membrane is considered "hydrophilic" if the flow rate is such that the front traverses a length compatible with visualizing a result (ie., 2 - 10 cm) in a time consistent with rapid diagnostic assays, (ie., less than 10 minutes and preferably less than 5 minutes).
[…] At various time intervals (0, 7, 14, 21, 28, 56, 84, 112, etc days) the hydrophilicity of the membrane was tested by immersing a strip of laminated membrane 1-3 mm into a test solution (0.1M Tris pH 7.4, 0.9% NaCl, phenol red) and measuring the time required for the solution front to migrate a distance of 5.4 cm. A more hydrophilic membrane requires a shorter time for the liquid to move 5.4 cm.

[1] = 0 days storage at 45° C, membrane treated with surfactant as example 4 Part E, laminated with Flexcon PM150C/V23/Poly SC9
[2] = 7 days storage at 45° C, surfactant-treated (example 4 Part E), Poly SC9 laminate
[3] = 14 days storage at 45° C, surfactant-treated (example 4 Part E), Poly SC9 laminate
[4] = 21 days storage at 45° C, surfactant-treated (example 4 Part E), Poly SC9 laminate
[5] = 28 days storage at 45° C, surfactant-treated (example 4 Part E), Poly SC9 laminate

| SMILES | Wicking Time to traverse 5.4 cm strip [1] | Wicking Time to traverse 5.4 cm strip [2] | Wicking Time to traverse 5.4 cm strip [3] | Wicking Time to traverse 5.4 cm strip [4] | Wicking Time to traverse 5.4 cm strip [5] | membrane wicking rate as a result of the treatment (Part B: surfactant 0.1% w/v from isopropanol) |
| --- | --- | --- | --- | --- | --- | --- |
| CCCCCCCS(=O)(=O)O [heptane sulfonic acid] | 4.9 min | 5.3 min | 5.2 min | 5.2 min | 5.3 min |  |
| CCCCCCCCCCS(=O)(=O)O [decane sulfonic acid] | 5.7 min | 6.4 min | 6.0 min | 6.3 min | 6.2 min |  |
| CCCCCCCCS(=O)(=O)O [octane sulfonic acid] | 5.1 min | 5.6 min | 5.4 min | 5.6 min | 5.7 min |  |

Next, values leading:

| Wicking Time to traverse 5.4 cm strip [1] | Wicking Time to traverse 5.4 cm strip [2] | Wicking Time to traverse 5.4 cm strip [3] | Wicking Time to traverse 5.4 cm strip [4] | Wicking Time to traverse 5.4 cm strip [5] | membrane wicking rate as a result of the treatment (Part B: surfactant 0.1% w/v from isopropanol) | SMILES |
| --- | --- | --- | --- | --- | --- | --- |
| 6.2 min | 6.4 min | 6.0 min | 6.3 min | 6.3 min |  | CCCCCCCCCCCCS(=O)(=O)O [dodecane sulfonic acid] |
| 4.1 min | 5.5 min | 5.4 min | 5.6 min | 5.6 min |  | CCCCCS(=O)(=O)O [pentane sulfonic acid] |
| 6.3 min | 7.1 min | 7.0 min | 6.4 min | 6.0 min |  | CCCCCCCCCCCCOS(=O)(=O)[O-].[Na+] [sodium dodecyl sulfate] |
|  |  |  |  |  | decreased | CCCCCCCCCCCCCCCCO [cetyl alcohol] |
